Results from patent publication US20260242416A1, “ANTIMICROBIAL PEPTIDES” (priority 2023, published 2026).
Where a SMILES comes first, the peptide text is derived from it.

Legend:
E. coli ATCC 25922 = type: cell-based, Escherichia coli; conditions: ATCC 25922
Protocol: (§1) Bacteria were grown overnight at 37° C. in Mueller-Hinton Broth (MHB; Sigma-Aldrich, St. Louis. MO, USA) in a shaking incubator and aliquoted into cryovials with a 50% glycerol solution in a 1:1 ratio. No additives were added to the MHB during the growth of bacterial isolates. Glycerol stocks were stored at −80° C.
(§2) The antimicrobial activity of the putative AMPs was determined by a broth microdilution assay as described by the Clinical and Laboratory Standards Institute, with the published adaptations for testing of cationic peptides. Escherichia coli 25922 and Staphylococcus aureus 29213 isolates were purchased from the American Type Culture Collection (ATCC; Manassas, VA, USA). A human clinical isolate of Salmonella enterica serovar Enteritidis was provided by the BC Centre for Disease Control. Bacteria from stocks stored at −80° C. were streaked onto nonselective Columbia blood agar with 5% sheep blood (Oxoid) and incubated overnight at 37° C. Next, 2-4 colonies were streaked onto a new agar plate to ensure uniform health of colonies used in the broth microdilution assay. Isolated colonies were suspended in MHB and the optical density was measured with a spectrophotometer to create an initial inoculum concentration of approximately 1×10^8 cfu/mL. The inoculum was diluted 1:250 to a final concentration of 2-8×10^5 cfu/mL, which was confirmed by performing a Total Viability Count (TVC). The TVC consisted of plating a 1:1000 dilution of the final inoculum on nonselective media and was also used to confirm the health and purity of the inoculum in each trial.
(§3) Lyophilized 80 μg peptide aliquots synthesized by GenScript (Piscataway, NJ, USA) were resuspended to 1.28 mg/mL with UltraPure water (Thermo Fisher Scientific, Waltham, MA, USA) and serially diluted in polypropylene 96-well microtiter plates (Greiner Bio-One #650261, Kremsmunster, Austria) from 128 down to 0.5 μg/mL. Two columns per plate were reserved for growth and sterility controls. Inoculum was added to the wells containing the peptide and the growth control. Plates were incubated for 20-24 h at 37° C. The minimum inhibitory concentration (MIC) was determined as the lowest peptide concentration where there was no visible bacterial growth.

[1] = tested on: Salmonella enterica serovar Enteritidis (human clinical isolate); type: cell-based; conditions: serovar Enteritidis (human clinical isolate)
Protocol: as §1, §2, §3

S. aureus ATCC 29213 = type: cell-based, Staphylococcus aureus; conditions: ATCC 29213
Protocol: as §1, §2, §3

CC[C@H](C)[C@H](N)C(=O)N[C@H](C(=O)N[C@@H](CCC(=O)O)C(=O)N1CCC[C@H]1C(=O)N[C@H](C(=O)NCC(=O)N[C@H](C(=O)N[C@@H](CCCCN)C(=O)N[C@@H](C)C(=O)N1CCC[C@H]1C(=O)N[C@H](C(=O)N[C@@H](Cc1ccccc1)C(=O)N[C@H](C(=O)N[C@@H](CO)C(=O)N[C@@H](CCC(=O)O)C(=O)N[C@@H](CC(C)C)C(=O)N[C@@H](CCCNC(=N)N)C(=O)NCC(=O)NCC(=O)N[C@@H](Cc1c[nH]c2ccccc12)C(=O)N[C@@H](CC(C)C)C(=O)N[C@@H](CCCCN)C(=O)N[C@@H](CCCCN)C(=O)N[C@@H](CCCNC(=N)N)C(=O)O)[C@@H](C)O)[C@@H](C)O)[C@@H](C)O)C(C)C)[C@@H](C)O [PaVa3] (H-ITEPVGTKAPTFTSELRGGWLKKR-OH; N-terminus and C-terminus assumed)
>128/>128/>128 ug/mL: MIC (ug/mL) E. coli (E. coli ATCC 25922) | MIC (ug/mL) S. Enteritidis [1] | MIC (ug/mL) S. aureus (S. aureus ATCC 29213)

CC(C)C[C@H](NC(=O)[C@H](C)NC(=O)[C@@H](N)Cc1c[nH]c2ccccc12)C(=O)N[C@@H](CCCNC(=N)N)C(=O)N[C@@H](Cc1c[nH]c2ccccc12)C(=O)N[C@@H](CCCCN)C(=O)N[C@H](C(=O)N[C@@H](CCCNC(=N)N)C(=O)O)[C@@H](C)O [PaVi1, WALRWKTR] (H-WALRWKTR-OH; N-terminus and C-terminus assumed)
>128/>128/>128 ug/mL: MIC (ug/mL) E. coli (E. coli ATCC 25922) | MIC (ug/mL) S. Enteritidis [1] | MIC (ug/mL) S. aureus (S. aureus ATCC 29213)

C[C@H](NC(=O)CNC(=O)[C@H](CCCNC(=N)N)NC(=O)[C@H](CCC(=O)O)NC(=O)[C@H](CCC(=O)O)NC(=O)[C@@H](N)CCCCN)C(=O)N1CCC[C@H]1C(=O)N[C@@H](CCCCN)C(=O)NCC(=O)N[C@@H](CS)C(=O)N[C@@H](Cc1c[nH]c2ccccc12)C(=O)N[C@H](C(=O)N[C@@H](CCCCN)C(=O)N[C@@H](CO)C(=O)N[C@@H](Cc1ccc(O)cc1)C(=O)N1CCC[C@H]1C(=O)N1CCC[C@H]1C(=O)N[C@@H](CCCCN)C(=O)N1CCC[C@H]1C(=O)N[C@@H](CS)C(=O)N[C@@H](CO)C(=O)NCC(=O)N[C@@H](CCCCN)C(=O)N[C@@H](CCCNC(=N)N)C(=O)O)[C@@H](C)O [PeNi13] (H-KEERGAPKGCWTKSYPPKPCSGKR-OH; N-terminus and C-terminus assumed)
>128/>128/>128 ug/mL: MIC (ug/mL) E. coli (E. coli ATCC 25922) | MIC (ug/mL) S. Enteritidis [1] | MIC (ug/mL) S. aureus (S. aureus ATCC 29213)

CC(C)C[C@H](NC(=O)[C@H](CCCCN)NC(=O)[C@H](CCCCN)NC(=O)[C@H](CC(C)C)NC(=O)[C@@H](NC(=O)[C@H](Cc1ccc(O)cc1)NC(=O)[C@@H](NC(=O)CNC(=O)[C@H](CCC(=O)O)NC(=O)[C@H](CC(N)=O)NC(=O)[C@H](Cc1c[nH]c2ccccc12)NC(=O)[C@@H]1CCCN1C(=O)[C@H](CO)NC(=O)[C@H](CO)NC(=O)[C@@H]1CCCN1C(=O)[C@H](CC(C)C)NC(=O)[C@@H](N)Cc1ccccc1)[C@@H](C)O)C(C)C)C(=O)N[C@@H](CCCCN)C(=O)N[C@@H](CO)C(=O)O [PeNi15, FLPSSPWNEGTYVLKKLKS] (H-FLPSSPWNEGTYVLKKLKS-OH; N-terminus and C-terminus assumed)
>128/>128/>128 ug/mL: MIC (ug/mL) E. coli (E. coli ATCC 25922) | MIC (ug/mL) S. Enteritidis [1] | MIC (ug/mL) S. aureus (S. aureus ATCC 29213)
